US11827628B2, “Compositions and methods for inhibition of the JAK pathway” (Rigel Pharmaceuticals, Inc., priority 2005, dated 2023)
Like-named read-outs stand apart in the source and are kept apart here.

Assays:
Primary human T-cells = assay: Primary Human T-Cell Proliferation Assay Stimulated with IL-2 (CellTiter-Glo); assay type: cell-based; conditions: read-out: IC50, Example 42
Outline: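 Peripheral blood T-cells pre-activated with anti-CD3/anti-CD28 and IL-2 were washed free of IL-2, then cultured with compound plus IL-2 for 72 hours at 37° C, duplicate wells. Viability read as ATP by CellTiter-Glo luminescence; IC50 reported.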

[1] = system: IL-4 stimulated expression of CD23 in human Ramos B cells (JAK-1 and JAK-3); assay: Assay for Ramos B-Cell Line Stimulated with IL-4 (CD23 upregulation, FACS); assay type: cell-based; conditions: read-out: IC50, Example 41
Outline: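 Read-out: anti-CD23-PE flow cytometry on Ramos B cells, giving IC50. Cells (5×10^4 per point, RPMI + 5% serum) get compound or DMSO for 1 h at 37 °C, then IL-4 50 units/mL final for 20-24 h.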

[2] = primary human T-cells stimulated with IL-2, proliferation
[3] = Ramos B cells stimulated with IL-4, CD23 expression by FACS
[4] = primary human T-cell proliferation stimulated with IL-2
[5] = Ramos B-cell line stimulated with IL-4, CD23 expression by FACS
[6] = Homo sapiens, T-cell, primary human T-cell proliferation stimulated with IL-2
[7] = Homo sapiens, Ramos, Ramos B-cell line stimulated with IL-4, CD23 expression by FACS
[8] = Homo sapiens, T-cell, primary human T-cells stimulated with IL-2, proliferation
[9] = Homo sapiens, Ramos, Ramos B cells stimulated with IL-4, CD23 expression by FACS

Row | Compound | IC50 (Primary human T-cells; [4]) [nM] | IC50 [1, 5] [nM] | IC50 (Primary human T-cells; [8]) [nM] | IC50 [1, 9] [nM] | further results
1 | CCCN(Cc1ccc(Nc2nc(Nc3cccc(S(N)(=O)=O)c3)ncc2F)cc1)C(N)=O [III-126, N2-(3-aminosulfonyl)phenyl-N4-[4-(N-carbamoyl-N-propyl)aminomethyl]phenyl-5-fluoro-2,4-pyrimidinediamine] | – | – | – | – | IC50 (Primary human T-cells; [2]): 470 nM; IC50 [1, 3]: 197 nM
2 | Cc1cc(Nc2nc(Nc3cccc(S(N)(=O)=O)c3)ncc2F)ccc1NC(=O)CC#N [Compound I-80, N2-(3-Aminosulfonylphenyl)-5-fluoroN4-[3-methyl-4-(N-cyanoacetyl)aminophneyl]-2,4-pyrimidinediamine] | 470 | 365 | – | – | –
3 | NS(=O)(=O)c1ccc(Nc2ncc(F)c(Nc3ccc(OCc4ccccn4)c(Cl)c3)n2)cc1 [Compound I-175, N2-(4-Aminosulfonylphenyl)-5-fluoro-N4-[4-(2-pyridinyl)-3-chloromethyleneoxyphenyl]-2,4-pyrimidinediamine] | 3080 | 147 | – | – | –
4 | N#CCC(=O)Nc1ccc(Nc2nc(Nc3cccc(S(N)(=O)=O)c3)ncc2F)cc1Cl [Compound I-82, N2-(3-Aminosulfonylphenyl)-N4-[3-chloro-4-(N-cyanoacetyl)aminophneyl]-5-fluoro-2,4-pyrimidinediamine] | 1380 | 244 | – | – | –
5 | NC(=O)CCc1ccc(Nc2nc(Nc3cccc(S(N)(=O)=O)c3)ncc2F)cc1 [III-48, N4-[4-(2-Aminocarboxylethylene)phenyl]-N2-(3-aminosulfonylphenyl)-5-fluoro-2,4-pyrimidinediamine] | 218 | 204 | – | – | –
6 | NS(=O)(=O)c1cc(Nc2ncc(F)c(Nc3ccc(C(F)(F)F)cc3)n2)ccc1Cl [VI-41, N2-(3-Aminosulfonyl-4-chlorophenyl)-5-fluoro-N4-(4-trifluorophenyl)-2,4-pyrimidinediamine] | – | – | – | – | IC50 (Primary human T-cells; [2]): 6240 nM; IC50 [1, 3]: 342 nM
7 | Cc1ccc(Nc2ncc(F)c(Nc3ccc(CCOC(=O)N(C)C)cc3)n2)cc1S(N)(=O)=O [III-56, N2-(3-Aminosulfonyl-4-methylphenyl)-N4-{4-[2-(dimethylaminocarbonyloxy)ethyl]phenyl}-5-fluoro-2,4-pyrimidinediamine] | – | – | – | – | IC50 (Primary human T-cells; [6]): 499 nM; IC50 [1, 7]: 196 nM
8 | NS(=O)(=O)c1ccc(Nc2ncc(F)c(Nc3ccc(Cl)c(Cl)c3)n2)cc1 [VI-109, N2-(4-Aminosulfonylphenyl)-N4-(3,4-dichlorophenyl)-5-fluoro-2,4-pyrimidinediamine] | – | – | 2870 | 136 | –
9 | Cc1ccc(Nc2ncc(F)c(Nc3ccc(C(=O)N4CCN(C)CC4)cc3)n2)cc1S(N)(=O)=O [IX-27, N2-(3-Aminosulfonyl-4-methylphenyl)-5-fluoro-N4-[4-(4-methylpiperazin-1-ylcarbonyl)phenyl]-2,4-pyrimidinediamine] | – | – | 7630 | 1380 | –
10 | NS(=O)(=O)c1cccc(Nc2ncc(F)c(Nc3ccc(CNC(=O)C4CC4)cc3)n2)c1 [III-42, N2-(3-aminosulfonyl)phenyl-N4-(4-cyclopropylcarbonylaminomethyl)phenyl-5-fluoro-2,4-pyrimidinediamine] | 641 | 294 | – | – | –
11 | CC(C)c1ccc(Nc2ncc(F)c(Nc3ccc4oc(C#N)cc4c3)n2)cc1S(N)(=O)=O [IX-22, N2-(3-Aminosulfonyl-4-iso-propylphenyl)-N4-(2-cyanobenzofuran-5-yl)-5-fluoro-2,4-pyrimidinediamine] | – | – | 1590 | 295 | –
12 | CNS(=O)(=O)c1cc(Nc2ncc(F)c(Nc3ccc(Cn4ccnn4)cc3)n2)ccc1C [III-98, 5-Fluoro-N2-[3-(N-methylaminosulfony)-4-methylphenyl]-N4-{4-[1-(1,2,3-thazolyl)methyl]phenyl}-2,4-pyrimidinediamine] | – | – | – | – | IC50 (Primary human T-cells; [2]): 457 nM; IC50 [1, 3]: 117 nM
13 | NS(=O)(=O)c1ccc(Nc2ncc(F)c(Nc3ccc(-c4cnco4)cc3)n2)cc1 [IV-8, N2-(4-Aminosulfonylphenyl)-5-fluoro-N4-[4-(1,3-oxazol-5-yl)phenyl]-2,4-pyrimidinediamine] | – | – | 627 | 166 | –
14 | NS(=O)(=O)c1cccc(Nc2ncc(F)c(Nc3cccc4cccnc34)n2)c1 [VII-78, N2-(3-Aminosulfonylphenyl)-5-fluoro-N4-(quinolin-8-yl)-2,4-pyrimidinediamine] | – | – | 682 | 85.8 | –
15 | N2-(3-Aminocarbonyl-5-methylphenyl)-5-fluoro-N2-[4-(1H-pyrazol-5-yl)amidophenyl)-2,4-pyrimidinediamine [II-22] | 7490 | 858 | – | – | –
16 | Cc1ccc(Nc2ncc(F)c(Nc3cccc(S(=O)(=O)N(C)C)c3)n2)cc1S(N)(=O)=O [IV-10, N2-(3-Aminosulfonyl-4-methylphenyl)-5-fluoro-N4-[3-(N,N-dimethylaminosulfonyl)phenyl]-2,4-pyrimidinediamine] | – | – | 714 | 135 | –

Row | Compound | IC50 (Primary human T-cells; [4]) [nM] | IC50 [1, 5] [nM] | IC50 (Primary human T-cells; [8]) [nM] | IC50 [1, 9] [nM] | further results
17 | N2-(3-Aminosulfonyl-4-methylphenyl)-N4-(4-ethylaminocarbonylaminomethylphenyl)-5-fluoro-2,4-pyrimidinedia [III-121] | – | – | – | – | IC50 (Primary human T-cells; [2]): 1020 nM; IC50 [1, 3]: 575 nM
18 | NS(=O)(=O)c1ccc(Nc2ncc(F)c(Nc3ccc(Cn4cncn4)cc3)n2)cc1 [III-99, N2-(4-Aminosulfonylphenyl)-5-fluoro-N4-{4-[1-(1,2,4-thazolyl)methyl]phenyl}-2,4-pyrimidinediamine] | – | – | – | – | IC50 (Primary human T-cells; [2]): 2170 nM; IC50 [1, 3]: 1030 nM
19 | NC(=O)NCc1ccc(Nc2nc(Nc3cccc(S(N)(=O)=O)c3)ncc2F)cc1 [III-33, N4-(4-Aminocarbonylaminomethylphenyl)-N2-(3-aminosulfonylphenyl)-5-fluoro-2,4-pyrimidinediamine] | – | – | – | – | IC50 (Primary human T-cells; [6]): 852 nM; IC50 [1, 7]: 1680 nM
20 | CCNC(=O)NCc1ccc(Nc2nc(Nc3cccc(S(N)(=O)=O)c3)ncc2F)cc1 [III-120, N2-(3-Aminosulfonylphenyl]-N4-(4-ethylaminocarbonylaminomethylphenyl)-5-fluoro-2,4-pyrimidinediamine] | – | – | 554 | 655 | –
21 | CC(Oc1ccc(Nc2nc(Nc3ccc(S(N)(=O)=O)cc3)ncc2F)cc1)C(N)=O (racemic) [Compound I-116, Racemic N4-[4-(1-Aminocarbonyl)ethoxy]phenyl-N2-(4-aminosulfonyl)phenyl-5-fluoro-2,4-pyrimidinediamine] | 972 | 274 | – | – | –
22 | N2-(3-Aminosulfonyl-4-methoxy-5-methylphenyl)-N4-(4-benzylphenyl)-5-fluoro-2,4-pyrimidinediamine [III-65] | 936 | 209 | – | – | –
23 | NS(=O)(=O)c1ccc(Nc2ncc(F)c(Nc3ccc(CCCF)cc3)n2)cc1 [VI-82, N2-(4-Aminosulfonylphenyl)-5-fluoro-N4-[4-(3-fluoropropyl)phenyl]-2,4-pyrimidinediamine] | – | – | 1630 | 212 | –
24 | NS(=O)(=O)c1ccc(Nc2ncc(F)c(Nc3ccc(CCCCF)cc3)n2)cc1 [VI-91, N2-(4-Aminosulfonylphenyl)-5-fluoro-N4-[4-(4-fluorobutyl)phenyl]-2,4-pyrimidinediamine] | – | – | 1230 | 221 | –
25 | COc1cc(Nc2nc(Nc3ccc(C)c(S(N)(=O)=O)c3)ncc2F)ccc1CCC#N [III-25, N2-(3-Aminosulfonyl-4-methylphenyl)-N4-(4-cyanoethylene-3-methoxyphenyl)-5-fluoro-2,4-pyrimidinediamine] | 1260 | 272 | – | – | –
26 | CNS(=O)(=O)c1cc(Nc2ncc(F)c(Nc3ccc(Oc4ccncc4)cc3)n2)ccc1C [II-18, 5-Fluoro-N2-[3-(N-methylaminosulfony)-4-methylphenyl]-5-fluoro-N4-[4-(4-pyridyloxy)phenyl]-2,4-pyrimidinediamine] | 3310 | 2040 | – | – | –
27 | COc1cc(Nc2ncc(F)c(Nc3ccc(OCC#N)c(C)c3)n2)ccc1S(N)(=O)=O [Compound I-29, N2-(4-Aminosulfonyl-3-methoxy)phenyl-N4-(4-cyanomethoxy-3-methyl)phenyl-5-fluoro-2,4-pyrimidinediamine] | 502 | 120 | – | – | –
28 | C#CCOc1ccc(Nc2nc(Nc3ccc(C)c(S(N)(=O)=O)c3)ncc2F)cc1C [VI-58, N2-(3-Aminosulfonyl-4-methylphenyl)-5-fluoro-N4-[3-methyl-4-(prop-2-ynyloxy)phenyl]-2,4-pyrimidinediamine] | – | – | 724 | 164 | –
29 | NS(=O)(=O)c1cccc(Nc2ncc(F)c(Nc3ccc(OCc4ccccn4)c(Cl)c3)n2)c1 [Compound I-171, N2-(3-Aminosulfonylphenyl)-5-fluoro-N4-[4-(2-pyridinyl)-3-chloromethyleneoxyphenyl]-2,4-pyrimidinediamine] | 415 | 117 | – | – | –
30 | Cc1cc(COc2ccc(Nc3nc(Nc4ccc(Cl)c(S(N)(=O)=O)c4)ncc3F)cc2)no1 [Compound I-220, N2-(3-Aminosulfonyl-4-chlorophenyl)-5-fluoro-N4-[4-(5-methylisoxazol-3-yl)methyleneoxyphenyl]-2,4-pyrimidinediamine] | 1070 | 121 | – | – | –
31 | C#CCN(CC#C)c1ccc(Nc2nc(Nc3ccc(C)c(S(N)(=O)=O)c3)ncc2F)cc1 [VI-67, N2-(3-Aminosulfonyl-4-methylphenyl)-N4-{4-[bis(prop-2-ynyl)amino]phenyl}-5-fluoro-2,4-pyrimidinediamine] | – | – | 718 | 147 | –
